Results from publication PMC5951806, “Rapid labelling and covalent inhibition of intracellular native proteins using ligand-directed N-acyl-N-alkyl sulfonamide” (Nature Communications, 2018).

How the values were obtained:
[1] = biological target: Sodium/potassium-transporting ATPase subunit alpha-1 (ATP1A1) (Homo sapiens, UniProt P05023); assay: TMT LC-MSMS of 11-labelled proteins; format: cell-based
[2] = biological target: T1, prenylcysteine oxidase 1 (PCYOX1) (Homo sapiens, UniProt Q9UHG3); assay: TMT LC-MSMS of 11-labelled proteins; format: cell-based
T1 sequence (Q9UHG3 28-505): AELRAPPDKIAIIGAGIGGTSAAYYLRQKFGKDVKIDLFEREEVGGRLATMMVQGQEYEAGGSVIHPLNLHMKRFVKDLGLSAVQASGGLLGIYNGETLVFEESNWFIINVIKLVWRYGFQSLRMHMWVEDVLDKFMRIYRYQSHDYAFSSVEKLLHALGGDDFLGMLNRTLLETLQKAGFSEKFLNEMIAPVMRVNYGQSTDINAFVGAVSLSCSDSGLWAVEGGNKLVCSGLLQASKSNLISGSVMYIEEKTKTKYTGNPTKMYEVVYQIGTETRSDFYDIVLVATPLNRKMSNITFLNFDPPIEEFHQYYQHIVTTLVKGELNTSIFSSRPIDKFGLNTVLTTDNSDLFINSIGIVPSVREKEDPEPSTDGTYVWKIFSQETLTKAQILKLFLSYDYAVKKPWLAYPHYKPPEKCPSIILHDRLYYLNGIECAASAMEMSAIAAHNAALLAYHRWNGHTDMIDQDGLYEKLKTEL

[3] = sheet Exp1, SKBR3 cells, 11 0.5 µM 3 h vs DMSO
[4] = sheet Exp1, SKBR3 cells, 11 0.5 µM 3 h vs with PU-H71 10 µM
[5] = sheet Merged, SKBR3 cells, 11 0.5 µM 3 h vs DMSO
[6] = sheet Merged, SKBR3 cells, 11 0.5 µM 3 h vs with PU-H71 10 µM

## CC(=O)Oc1ccc2c(c1)Oc1cc(OC(C)=O)ccc1C21OC(=O)c2cc(C(=O)NCCOCCOCCNC(=O)CCCC(=O)N(CC#N)S(=O)(=O)c3ccc(C(=O)NCCCn4c(Sc5cc6c(cc5I)OCO6)nc5c(N)ncnc54)cc3)ccc21 [compound 11]
[1]; Exp3, ATP1A1
  Abundance Ratio: (11) / (11 with PU-H71): 0.969
  Abundance Ratio: (11) / (DMSO): 3.731
  Abundances (Grouped): 11: 59.7
  Abundances (Grouped): 11 with PU-H71: 61.6
[1]; [3]
  Abundance Ratio: (11) / (DMSO): 1.112
[1]; [4]
  Abundance Ratio: (11) / (11 with PU-H71): 0.455
[1]; sheet Exp2, ATP1A1
  Abundance Ratio: (11) / (11 with PU-H71): 0.735
  Abundance Ratio: (11) / (DMSO): 2.007
  Abundances (Grouped): 11: 162
  Abundances (Grouped): 11 with PU-H71: 220.4
[1]; [5]
  Abundance Ratio: (11) / (DMSO): 1.112
[1]; [6]
  Abundance Ratio: (11) / (11 with PU-H71): 0.455
[2]; Exp3, PCYOX1
  Abundance Ratio: (11) / (11 with PU-H71): 0.713
  Abundance Ratio: (11) / (DMSO): 1.251
  Abundances (Grouped): 11: 54.9
[2]; Exp3, PCYOX1, with PU-H71
  Abundances (Grouped): 11 with PU-H71: 77
[2]; [3]
  Abundance Ratio: (11) / (DMSO): 1.831
[2]; [4]
  Abundance Ratio: (11) / (11 with PU-H71): 0.86
[2]; [5]
  Abundance Ratio: (11) / (DMSO): 1.513
[2]; [6]
  Abundance Ratio: (11) / (11 with PU-H71): 0.783
